Patent US20220169629A1, “PESTICIDALLY ACTIVE DIAZINE-AMIDE COMPOUNDS” (SYNGENTA CROP PROTECTION AG, priority 2019, published 2022)

Columns and labels:
Assay type in all cases: in vivo
[1] = system: Spodoptera littoralis (Egyptian cotton leaf worm); experiment: Example B7: Spodoptera littoralis (Egyptian cotton leaf worm), sprayed cotton leaf discs, L1 larvae; conditions: foliar, 72 h, application rate of 200 ppm, 3 days after infestation, L1 larvae on cotton leaf discs, read-out: control in at least one of the three categories (mortality, anti-feeding or growth inhibition)
Description: Example B7: Spodoptera littoralis (Egyptian Cotton Leaf Worm)
Cotton leaf discs were placed onto agar in 24-well microtiter plates and sprayed with aqueous test solutions prepared from 10′000 ppm DMSO stock solutions. After drying the leaf discs were infested with five L1 larvae. The samples were assessed for mortality, anti-feeding effect, and growth inhibition in comparison to untreated samples 3 days after infestation. Control of Spodoptera littoralis by a test sample is given when at least one of the categories mortality, anti-feedant effect, and growth inhibition is higher than the untreated sample.

[2] = system: Spodoptera littoralis (Egyptian cotton leaf worm); experiment: Example B8: Spodoptera littoralis (Egyptian cotton leaf worm), uptake by lettuce roots from agar; conditions: 144 h, test rate of 12.5 ppm, 6 days after infestation, compound absorbed by lettuce roots, read-out: control in at least one of the three categories (mortality, anti-feeding, or growth inhibition)
Source text: Example B8: Spodoptera littoralis (Egyptian Cotton Leaf Worm)
Test compounds were applied by pipette from 10′000 ppm DMSO stock solutions into 24-well plates and mixed with agar. Lettuce seeds were placed onto the agar and the multi well plate was closed by another plate which contained also agar. After 7 days the compound was absorbed by the roots and the lettuce grew into the lid plate. The lettuce leaves were then cut off into the lid plate. Spodoptera eggs were pipetted through a plastic stencil onto a humid gel blotting paper and the lid plate was closed with it. The samples were assessed for mortality, anti-feedant effect and growth inhibition in comparison to untreated samples 6 days after infestation.

[3] = system: Euschistus heros (neotropical brown stink bug); experiment: Example B2: Euschistus heros (neotropical brown stink bug), sprayed soybean leaves, N2 nymphs; conditions: 120 h, application rate of 200 ppm, 5 days after infestation, N2 nymphs on soybean leaves, read-out: control in at least one of the two categories (mortality or growth inhibition)
Description: Example B2: Euschistus heros (Neotropical Brown Stink Bug)
Soybean leaves on agar in 24-well microtiter plates were sprayed with aqueous test solutions prepared from 10′000 ppm DMSO stock solutions. After drying the leaves were infested with N2 nymphs. The samples were assessed for mortality and growth inhibition in comparison to untreated samples 5 days after infestation.

[4] = system: Plutella xylostella (diamond back moth); experiment: Example B5: Plutella xylostella (diamond back moth), artificial diet, 24-well, eggs; conditions: 192 h, application rate of 200 ppm, 8 days after infestation, read-out: control in at least one of the two categories (mortality or growth inhibition)
Description: Example B5: Plutella xylostella (Diamond Back Moth)
24-well microtiter plates with artificial diet were treated with aqueous test solutions prepared from 10′000 ppm DMSO stock solutions by pipetting. After drying, Plutella eggs were pipetted through a plastic stencil onto a gel blotting paper and the plate was closed with it. The samples were assessed for mortality and growth inhibition in comparison to untreated samples 8 days after infestation.

[5] = system: Bemisia tabaci (cotton white fly); experiment: Example B3: Bemisia tabaci (cotton white fly), feeding/contact activity; conditions: foliar, 144 h, application rate of 200 ppm, 6 days after incubation, adult white flies on cotton leaf discs
Description: Example B3: Bemisia tabaci (Cotton White Fly): Feeding/Contact Activity
Cotton leaf discs were placed on agar in 24-well microtiter plates and sprayed with aqueous test solutions prepared from 10′000 ppm DMSO stock solutions. After drying the leaf discs were infested with adult white flies. The samples were checked for mortality 6 days after incubation.

[6] = system: Myzus persicae (green peach aphid); experiment: Example B6: Myzus persicae (green peach aphid), intrinsic activity; conditions: 120 h, test rate of 12 ppm, 5 days after infestation, sucrose solution, infested pea seedlings
Source text: Example B6: Myzus persicae (Green Peach Aphid): Intrinsic Activity
Test compounds prepared from 10′000 ppm DMSO stock solutions were applied by pipette into 24-well microtiter plates and mixed with sucrose solution. The plates were closed with a stretched Parafilm. A plastic stencil with 24 holes was placed onto the plate and infested pea seedlings were placed directly on the Parafilm. The infested plate was closed with a gel blotting paper and another plastic stencil and then turned upside down. The samples were assessed for mortality 5 days after infestation.

[7] = system: Diabrotica balteata (corn root worm); experiment: Example B1: Diabrotica balteata (corn root worm), sprayed maize sprouts, L2 larvae; conditions: 96 h, application rate of 200 ppm, 4 days after infestation, L2 larvae on maize sprouts, read-out: control in at least one of the two categories (mortality or growth inhibition)
Description: Example B1: Diabrotica Balteata (Corn Root Worm)
Maize sprouts placed onto an agar layer in 24-well microtiter plates were treated with aqueous test solutions prepared from 10′000 ppm DMSO stock solutions by spraying. After drying, the plates were infested with L2 larvae (6 to 10 per well). The samples were assessed for mortality and growth inhibition in comparison to untreated samples 4 days after infestation.

[8] = system: Chilo suppressalis (striped rice stemborer); experiment: Example B4: Chilo suppressalis (striped rice stemborer), artificial diet, L2 larvae; conditions: 144 h, application rate of 200 ppm, 6 days after infestation, L2 larvae on artificial diet, read-out: control in at least one of the three categories (mortality, anti-feeding or growth inhibition)
Description: Example B4: Chilo suppressalis (Striped rice stemborer)
24-well microtiter plates with artificial diet were treated with aqueous test solutions prepared from 10′000 ppm DMSO stock solutions by pipetting. After drying, the plates were infested with L2 larvae (6-8 per well). The samples were assessed for mortality, anti-feeding effect, and growth inhibition in comparison to untreated samples 6 days after infestation. Control of Chilo suppressalis by a test sample is given when at least one of the categories mortality, anti-feedant effect, and growth inhibition is higher than the untreated sample.

[9] = system: Plutella xylostella (diamondback moth); experiment: Example B10: Plutella xylostella (diamondback moth), 96-well artificial diet; conditions: 216 h, application rate of 500 ppm, 9 days after infestation, eggs/L1 larvae
Description: Example B10: Plutella xylostella (Diamondback Moth)
96-well microtiter plates containing artificial diet were treated with aqueous test solutions, prepared from 10′000 ppm DMSO stock solutions, by a liquid handling robot. After drying, eggs (˜30 per well) were infested onto a netted lid which was suspended above the diet. The eggs hatch and L1 larvae move down to the diet. The samples were assessed for mortality 9 days after infestation.

[10] = system: Myzus persicae (green peach aphid); experiment: Example B9: Myzus persicae (green peach aphid), 96-well sucrose solution; conditions: 120 h, application rate of 50 ppm, 5 days after infestation
Source text: Example B9: Myzus persicae (Green Peach Aphid)
Test compounds prepared from 10′000 ppm DMSO stock solutions were applied by a liquid handling robot into 96-well microtiter plates and mixed with a sucrose solution. Parafilm was stretched over the 96-well microtiter plate and a plastic stencil with 96 holes was placed onto the plate. Aphids were sieved into the wells directly onto the Parafilm. The infested plates were closed with a gel blotting card and a second plastic stencil and then turned upside down. The samples were assessed for mortality 5 days after infestation.

[11] = system: Tetranychus urticae (two-spotted spider mite); experiment: Example B11: Tetranychus urticae (two-spotted spider mite), feeding/contact activity; conditions: foliar, 192 h
Description: Example B11: Tetranychus urticae (Two-Spotted Spider Mite): Feeding/Contact Activity
Bean leaf discs on agar in 24-well microtiter plates were sprayed with aqueous test solutions prepared from 10′000 ppm DMSO stock solutions. After drying the leaf discs were infested with a mite population of mixed ages. The samples were assessed for mortality on mixed population (mobile stages) 8 days after infestation.

CC(NC(=O)c1cc(Br)cc(C(F)(F)F)c1)c1nccnc1-c1ncc(OCC(F)F)cn1 (stereo not drawn) [Compound P35, 3-bromo-N-[1-[3-[5-(2,2-difluoroethoxy)pyrimidin-2-yl]pyrazin-2-yl]ethyl]-5-(trifluoromethyl)benzamide]
≥ 80%: percent control (mortality, anti-feeding or growth inhibition) at 200 ppm [1] | percent control (mortality, anti-feeding or growth inhibition) at 12.5 ppm [2] | percent control (mortality or growth inhibition) at 200 ppm [3] | percent control (mortality or growth inhibition) at 200 ppm [4] | mortality at 200 ppm [5] | mortality at 12 ppm [6] | percent control (mortality or growth inhibition) at 200 ppm [7] | control at 200 ppm [8]

C[C@H](NC(=O)c1cc(C(F)(F)F)cc(C(F)(F)F)c1)c1nccnc1-c1ccc(OC(F)F)cn1 [Compound P24, N-[(1S)-1-[3-[5-(difluoromethoxy)-2-pyridyl]pyrazin-2-yl]ethyl]-3,5-bis(trifluoromethyl)benzamide]
≥ 80%: percent control (mortality, anti-feeding or growth inhibition) at 200 ppm [1] | percent control (mortality, anti-feeding or growth inhibition) at 12.5 ppm [2] | percent control (mortality or growth inhibition) at 200 ppm [3] | percent control (mortality or growth inhibition) at 200 ppm [4] | mortality at 500 ppm [9] | percent control (mortality or growth inhibition) at 200 ppm [7] | control at 200 ppm [8]

CC(NC(=O)c1cc(Br)cc(C(F)(F)F)c1)c1nccnc1-c1ncc(OC(F)F)cn1 (stereo not drawn) [Compound P23, 3-bromo-N-[1-[3-[5-(difluoromethoxy)pyrimidin-2-yl]pyrazin-2-yl]ethyl]-5-(trifluoromethyl)benzamide]
≥ 80%: percent control (mortality, anti-feeding or growth inhibition) at 200 ppm [1] | percent control (mortality, anti-feeding or growth inhibition) at 12.5 ppm [2] | percent control (mortality or growth inhibition) at 200 ppm [4] | mortality at 12 ppm [6] | mortality at 50 ppm [10] | mortality at 500 ppm [9] | percent control (mortality or growth inhibition) at 200 ppm [7] | control at 200 ppm [8]

CC(NC(=O)c1cc(OC(F)F)cc(C(F)(F)F)c1)c1nccnc1-c1ncc(OCC(F)F)cn1 (stereo not drawn) [Compound P28, N-[1-[3-[5-(2,2-difluoroethoxy)pyrimidin-2-yl]pyrazin-2-yl]ethyl]-3-(difluoromethoxy)-5-(trifluoromethyl)benzamide]
≥ 80%: percent control (mortality, anti-feeding or growth inhibition) at 200 ppm [1] | percent control (mortality or growth inhibition) at 200 ppm [3] | percent control (mortality or growth inhibition) at 200 ppm [4] | mortality at 12 ppm [6] | mortality at 50 ppm [10] | mortality at 500 ppm [9] | percent control (mortality or growth inhibition) at 200 ppm [7] | control at 200 ppm [8]

CC(NC(=O)c1cc(OCC(F)F)cc(C(F)(F)F)c1)c1nccnc1-c1ccc(OCC(F)F)cn1 (stereo not drawn) [Compound P16, 3-(2,2-difluoroethoxy)-N-[1-[3-[5-(2,2-difluoroethoxy)-2-pyridyl]pyrazin-2-yl]ethyl]-5-(trifluoromethyl)benzamide]
≥ 80%: mortality at 200 ppm [11] | percent control (mortality or growth inhibition) at 200 ppm [4] | mortality at 500 ppm [9] | control at 200 ppm [8]

CC(NC(=O)c1cc(OC(F)F)cc(C(F)(F)F)c1)c1nccnc1-c1ncc(OC(F)F)cn1 (stereo not drawn) [Compound P26, 3-(difluoromethoxy)-N-[1-[3-[5-(difluoromethoxy)pyrimidin-2-yl]pyrazin-2-yl]ethyl]-5-(trifluoromethyl)benzamide]
≥ 80%: percent control (mortality, anti-feeding or growth inhibition) at 200 ppm [1] | percent control (mortality or growth inhibition) at 200 ppm [4] | mortality at 12 ppm [6] | mortality at 50 ppm [10] | mortality at 500 ppm [9] | percent control (mortality or growth inhibition) at 200 ppm [7] | control at 200 ppm [8]
